# Experiments:
# [1] = Body and organ weights of the rats bearing the Dunning R-3327-H tumor; settings: 30 days, encapsulated 25 micrograms daily i.m.
# Experimental: In vivo tests were carried out on groups of 7 to 10 animals during a period of 30 days.
# The administration of the non-encapsulated Compound A adequately dissolved in a biocompatible solvent was achieved by the subcutaneous injection of two doses every day, each dose containing 25 micrograms of compound A (Table 2) or 12.5 micrograms of compound A (Table 3).
# The administration of the encapsulated compound A was achieved by the daily intra-muscular injection of doses of the preparation suspended in a biocompatible solvent, each such dose containing 25 micrograms of compound A.
# [2] = system: prostatic tumor R-3327-H according to Dunning; assay: Antagonistic effect on Dunning R-3327-H prostate carcinoma in rats, 30 days; type: in vivo; settings: encapsulated 25 micrograms daily i.m.
# Source text: (DUNNING R-3327-H PROSTRATE CARCINOMA).
# [3] = Table 2, non-encapsulated 2 x 25 micrograms/day s.c.
# [4] = Table 3, non-encapsulated 2 x 12.5 micrograms/day s.c.
compound,measurement,setting,value
"CC(C)C[C@H](NC(=O)[C@@H](Cc1c[nH]c2ccccc12)NC(=O)[C@H](Cc1ccc(O)cc1)NC(=O)[C@H](CO)NC(=O)[C@H](Cc1c[nH]c2ccccc12)NC(=O)[C@H](Cc1c[nH]cn1)NC(=O)[C@@H]1CCC(=O)N1)C(=O)N[C@@H](CCCNC(=N)N)C(=O)N1CCC[C@H]1C(=O)NCC(N)=O [Compound A non-encapsulated, (pyro) Glu-His-Trp-Ser-Tyr-D-Trp-Leu-Arg-Pro-Gly-NH2]",Testicles,[1]; [3],1.36 ± 0.14 g
same,Ventral portion of prostate,[1]; [3],54 + 5 mg
same,Testicles,[1]; [4],1.83 ± 0.07 g
same,Ventral portion of prostate,[1]; [4],88 + 7 mg
same,Increase of tumor volume,[2]; [3],85 + 19%
same,Tumor (Dunning R3327-H Prostate Carcinoma),[2]; [3],546 + 0.14 mg
same,Increase of tumor volume,[2]; [4],110 + 28%
same,Tumor (Dunning R3327-H Prostate Carcinoma),[2]; [4],260 + 68 mg

# From US4835139A, “Process for increasing the antagonistic effect of peptidic compounds on hormone-dependent diseases” (Debiopharm S.A., priority 1983, dated 1989)
